What was measured:
Type in all cases: cell-based
human TLR7 = target: T1, human TLR7 (Homo sapiens, UniProt Q9NYK1); experiment: TLR7 inhibition reporter assay (HEK-Blue SEAP reporter, gardiquimod stimulation); conditions: HEK-Blue cells overexpressing human TLR7, SEAP reporter, gardiquimod 7.5 μM, 22 hour incubation
T1 construct: host or cells: HEK-Blue cells
T1 sequence (Q9NYK1 27-1049): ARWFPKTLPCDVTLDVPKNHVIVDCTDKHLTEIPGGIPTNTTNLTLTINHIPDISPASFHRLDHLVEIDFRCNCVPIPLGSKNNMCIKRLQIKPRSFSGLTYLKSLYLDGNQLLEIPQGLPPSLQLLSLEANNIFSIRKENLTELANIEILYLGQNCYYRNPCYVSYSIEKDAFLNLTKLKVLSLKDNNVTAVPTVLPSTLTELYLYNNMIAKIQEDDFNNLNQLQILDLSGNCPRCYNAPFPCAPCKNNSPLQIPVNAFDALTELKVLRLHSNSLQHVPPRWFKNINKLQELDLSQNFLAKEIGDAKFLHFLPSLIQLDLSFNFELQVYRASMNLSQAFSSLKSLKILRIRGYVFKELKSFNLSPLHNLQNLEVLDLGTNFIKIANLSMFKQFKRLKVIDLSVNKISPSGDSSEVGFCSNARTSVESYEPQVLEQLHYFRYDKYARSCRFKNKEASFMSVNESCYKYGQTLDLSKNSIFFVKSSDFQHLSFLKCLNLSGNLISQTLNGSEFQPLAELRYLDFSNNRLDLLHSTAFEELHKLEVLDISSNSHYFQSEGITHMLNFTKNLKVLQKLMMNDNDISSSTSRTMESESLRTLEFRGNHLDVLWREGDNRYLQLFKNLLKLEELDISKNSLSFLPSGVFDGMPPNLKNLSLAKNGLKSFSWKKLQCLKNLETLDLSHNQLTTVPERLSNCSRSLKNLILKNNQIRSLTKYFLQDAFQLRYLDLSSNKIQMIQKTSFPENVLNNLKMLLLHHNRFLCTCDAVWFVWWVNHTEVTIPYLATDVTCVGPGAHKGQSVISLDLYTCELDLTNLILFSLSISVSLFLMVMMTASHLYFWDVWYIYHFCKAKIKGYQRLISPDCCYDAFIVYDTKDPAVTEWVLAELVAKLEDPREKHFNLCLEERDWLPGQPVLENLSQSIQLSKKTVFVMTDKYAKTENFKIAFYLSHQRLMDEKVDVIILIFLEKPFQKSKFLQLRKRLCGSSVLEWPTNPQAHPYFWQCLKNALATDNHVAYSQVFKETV
In short: (§1)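 Agonists used: gardiquimod 7.5 μM (TLR7), R848 15.9 μM (TLR8), ODN2006 5 nM (TLR9), added after 30 min room-temperature compound pre-treatment (0.05 nM–50 μM) of receptor-overexpressing HEK-Blue cells. SEAP reporter (NF-κB/AP-1 driven) read after 22 h at 37 °C; inhibition scaled between agonist+DMSO and reference-inhibitor wells.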

human TLR8 = target: T2, human TLR8 (Homo sapiens, UniProt Q9NR97); experiment: TLR8 inhibition reporter assay (HEK-Blue SEAP reporter, R848 stimulation); conditions: HEK-Blue cells overexpressing human TLR8, SEAP reporter, R848 15.9 μM, 22 hour incubation
T2 construct: host or cells: HEK-Blue cells
T2 sequence (Q9NR97 27-1041): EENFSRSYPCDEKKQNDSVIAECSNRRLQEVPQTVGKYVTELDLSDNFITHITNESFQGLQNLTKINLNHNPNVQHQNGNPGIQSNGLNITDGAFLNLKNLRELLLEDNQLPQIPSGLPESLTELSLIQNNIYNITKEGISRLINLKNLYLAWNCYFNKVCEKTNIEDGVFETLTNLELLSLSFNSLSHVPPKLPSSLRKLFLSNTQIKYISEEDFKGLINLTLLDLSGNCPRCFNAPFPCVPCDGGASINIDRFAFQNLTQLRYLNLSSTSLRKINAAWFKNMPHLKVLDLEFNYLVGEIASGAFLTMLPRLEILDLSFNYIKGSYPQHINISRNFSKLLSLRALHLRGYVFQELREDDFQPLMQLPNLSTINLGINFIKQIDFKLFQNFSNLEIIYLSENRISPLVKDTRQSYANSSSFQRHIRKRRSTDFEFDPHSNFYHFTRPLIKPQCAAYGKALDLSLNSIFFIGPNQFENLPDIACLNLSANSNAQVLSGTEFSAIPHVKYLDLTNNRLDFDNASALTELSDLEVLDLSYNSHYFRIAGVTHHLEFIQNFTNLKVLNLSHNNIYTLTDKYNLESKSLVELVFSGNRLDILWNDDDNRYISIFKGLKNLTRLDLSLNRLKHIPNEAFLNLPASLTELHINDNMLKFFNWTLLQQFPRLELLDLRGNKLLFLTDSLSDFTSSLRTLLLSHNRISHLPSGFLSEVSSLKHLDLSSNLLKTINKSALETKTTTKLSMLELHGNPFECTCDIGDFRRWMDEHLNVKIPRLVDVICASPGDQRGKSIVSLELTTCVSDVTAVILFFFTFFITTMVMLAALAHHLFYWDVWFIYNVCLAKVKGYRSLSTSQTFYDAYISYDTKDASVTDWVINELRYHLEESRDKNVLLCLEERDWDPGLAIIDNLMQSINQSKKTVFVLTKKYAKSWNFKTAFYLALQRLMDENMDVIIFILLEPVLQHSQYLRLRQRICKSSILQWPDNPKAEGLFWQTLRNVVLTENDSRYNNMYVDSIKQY
In short: as §1

human TLR9 = target: T3, human TLR9 (Homo sapiens, UniProt Q9NR96); experiment: TLR9 inhibition reporter assay (HEK-Blue SEAP reporter, ODN2006 stimulation); conditions: HEK-Blue cells overexpressing human TLR9, SEAP reporter, ODN2006 5 nM, 22 hour incubation
T3 construct: host or cells: HEK-Blue cells
T3 sequence (Q9NR96 26-1032): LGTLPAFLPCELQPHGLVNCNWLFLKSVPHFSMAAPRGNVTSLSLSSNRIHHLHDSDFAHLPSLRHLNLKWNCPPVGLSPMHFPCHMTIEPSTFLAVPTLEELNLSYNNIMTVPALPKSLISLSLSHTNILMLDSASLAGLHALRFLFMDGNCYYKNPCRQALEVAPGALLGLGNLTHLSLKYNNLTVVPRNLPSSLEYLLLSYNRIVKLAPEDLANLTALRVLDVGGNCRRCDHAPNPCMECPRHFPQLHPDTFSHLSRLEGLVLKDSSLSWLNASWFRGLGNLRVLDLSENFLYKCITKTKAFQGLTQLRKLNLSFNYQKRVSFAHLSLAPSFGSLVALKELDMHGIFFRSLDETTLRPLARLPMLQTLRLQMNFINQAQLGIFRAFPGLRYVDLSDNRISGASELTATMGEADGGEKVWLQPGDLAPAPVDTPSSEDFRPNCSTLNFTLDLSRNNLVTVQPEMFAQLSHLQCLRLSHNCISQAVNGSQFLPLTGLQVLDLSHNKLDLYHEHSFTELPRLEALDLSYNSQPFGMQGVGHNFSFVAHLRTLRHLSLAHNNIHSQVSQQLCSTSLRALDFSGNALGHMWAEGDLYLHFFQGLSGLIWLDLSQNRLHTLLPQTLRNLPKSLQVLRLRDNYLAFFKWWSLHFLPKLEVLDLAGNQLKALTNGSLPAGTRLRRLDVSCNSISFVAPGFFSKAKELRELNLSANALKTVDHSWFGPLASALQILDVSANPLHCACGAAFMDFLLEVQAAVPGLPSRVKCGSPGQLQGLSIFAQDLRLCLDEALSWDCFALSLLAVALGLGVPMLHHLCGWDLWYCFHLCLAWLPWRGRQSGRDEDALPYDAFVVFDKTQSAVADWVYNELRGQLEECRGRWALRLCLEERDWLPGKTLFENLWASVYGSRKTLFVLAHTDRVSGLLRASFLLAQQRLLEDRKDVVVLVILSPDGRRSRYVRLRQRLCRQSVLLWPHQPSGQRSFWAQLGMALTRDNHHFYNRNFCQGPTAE
In short: as §1

SMILES	IC50 (human TLR7) [µM]	IC50 (human TLR8) [µM]	IC50 (human TLR9) [µM]
Cc1ccc(-c2cc(-c3[nH]c4ccc(C5CCNCC5)cc4c3C(C)C)cn(C)c2=O)cc1 [Example 55, 5-(3-isopropyl-5-(piperidin-4-yl)-1H-indol-2-yl)-1-methyl-3-(p-tolyl) pyridin-2(1H)-one]	0.0139	0.203	2.29
Cc1cc(-c2[nH]c3ccc(C4CCN(C(=O)CN(C)C)CC4)cc3c2C(C)C)c(C)n(C)c1=O [Example 279, 5-(5-(1-(dimethylglycyl)piperidin-4-yl)-3-isopropyl-1H-indol-2-yl)-1,3,6-trimethylpyridin-2(1H)-one]	0.0231	0.0059	7.06
Cc1cc(-c2[nH]c3ccc(C4CCN(Cc5ccnn5C)CC4)cc3c2C(C)C)cn(C)c1=O [Example 197, 5-(3-isopropyl-5-(1-((1-methyl-1H-pyrazol-5-yl)methyl)piperidin-4-yl)-1H-indol-2-yl)-1,3-dimethylpyridin-2(1H)-one]	0.0046	0.0024	8.34
COc1cc(-c2[nH]c3ccc(C4CCN(C5COC5)CC4)cc3c2C(C)C)cn(C)c1=O [Example 202, 5-(3-isopropyl-5-(1-(oxetan-3-yl)piperidin-4-yl)-1H-indol-2-yl)-3-methoxy-1-methylpyridin-2(1H)-one]	0.0113	0.0135	5.63
CC(C)c1c(-c2cc(CCC(C)(C)C)c(=O)n(C)c2)[nH]c2ccc(C3CCNCC3)cc12 [Example 61, 3-(3,3-dimethylbutyl)-5-(3-isopropyl-5-(piperidin-4-yl)-1H-indol-2-yl)-1-methylpyridin-2(1H)-one]	2.19	2.28	2.08
CC(C)c1c(-c2ccc(=O)n(CC(N)=O)c2)[nH]c2ccc(C3CCNCC3)cc12 [Example 49, 2-(5-(3-isopropyl-5-(piperidin-4-yl)-1H-indol-2-yl)-2-oxopyridin-1(2H)-yl)acetamide]	2.61	2.09	≥ 50
Cc1cc(-c2[nH]c3ccc(C4CCN(C(=O)CN(C)C)CC4)cc3c2C(C)C)cn(Cc2ccccc2)c1=O [Example 284, 1-benzyl-5-(5-(1-(dimethylglycyl)piperidin-4-yl)-3-isopropyl-1H-indol-2-yl)-3-methylpyridin-2(1H)-one]	0.0065	0.0218	1.66

Further compounds by falling IC50 (human TLR7), results first:

IC50 (human TLR7) [µM]	IC50 (human TLR8) [µM]	IC50 (human TLR9) [µM]	SMILES
0.659	0.163	10.9	COc1cc(-c2[nH]c3ccc(C4CCN(C5COC5)CC4)cc3c2C(C)C)c(C)n(C)c1=O [Example 217, 5-(3-isopropyl-5-(1-(oxetan-3-yl)piperidin-4-yl)-1H-indol-2-yl)-3-methoxy-1,6-dimethylpyridin-2(1H)-one]
0.193	0.364	≥ 50	Cc1cc(-c2[nH]c3ccc(C4CCN(C(C)(C)C(=O)O)CC4)cc3c2C(C)C)cn(C)c1=O [Example 148, 2-(4-(2-(1,5-dimethyl-6-oxo-1,6-dihydropyridin-3-yl)-3-isopropyl-1H-indol-5-yl)piperidin-1-yl)-2-methylpropanoic acid]
0.0902	0.016	2.08	Cc1c(-c2[nH]c3ccc(C4CCN(C(=O)CN(C)C)CC4)cc3c2C(C)C)cc(C#N)c(=O)n1C [Example 273, 5-(5-(1-(dimethylglycyl)piperidin-4-yl)-3-isopropyl-1H-indol-2-yl)-1,6-dimethyl-2-oxo-1,2-dihydropyridine-3-carbonitrile]
0.0828	0.0384	0.756	CC(C)c1c(-c2cn(C)c(=O)cn2)[nH]c2ccc(C3CCNCC3)cc12 [Example 4, 5-(3-isopropyl-5-(piperidin-4-yl)-1H-indol-2-yl)-1-methylpyrazin-2(1H)-one]
0.0257	0.0365	1.83	CC(C)c1c(-c2ccc(=O)n(C)c2)[nH]c2ccc(C3CCN(C(=O)CN(C)C)CC3)cc12 [Example 301, 5-(5-(1-(dimethylglycyl)piperidin-4-yl)-3-isopropyl-1H-indol-2-yl)-1-methylpyridin-2(1H)-one]
0.0053	0.0056	19	CNC(=O)CN1CCC(c2ccc3[nH]c(-c4cn(C)c(=O)c(C)c4C)c(C(C)C)c3c2)CC1 [Example 135, 2-(4-(3-isopropyl-2-(1,4,5-trimethyl-6-oxo-1,6-dihydropyridin-3-yl)-1H-indol-5-yl)piperidin-1-yl)-N-methylacetamide]
0.0024	0.0066	2.63	Cc1cc(-c2[nH]c3ccc(C4CCN(C5CCC(C(C)(C)O)CC5)CC4)cc3c2C(C)C)cn(C)c1=O (stereo not drawn) [Example 268, 5-(5-(1-(4-(2-hydroxypropan-2-yl)cyclohexyl)piperidin-4-yl)-3-isopropyl-1H-indol-2-yl)-1,3-dimethylpyridin-2(1H)-one]
